Measured values reported in patent US20110039825A1, “LIGANDS OF ALPHA-ADRENOCEPTORS, DOPAMINE, HISTAMINE, IMIDAZOLINE AND SEROTONIN RECEPTORS AND THEIR USE” (Alla Chem, LLC, priority 2007, published 2011).

Tests used:
imidazoline receptor I2 = experiment: radioligand binding to imidazoline receptor I2 ([3H] Idazoxan); parameters: species or system rat; settings: 10 μM ligand
Experimental: Determination of investigated compounds' binding to imidazoline I2 receptor is carried out according to the method described in [Brown C M, MacKinnon A C, McGrath J C, Spedding M and Kilpatrick A T, a2-Adrenoceptor subtypes and imidazoline-like binding in the rat brain. Br J. Pharmacol. 99:803-809, 1990]. […] Idazoxan is used as positive control.

[1] = target: T1, recombinant human 5-HT2C receptor (Homo sapiens, UniProt P28335); experiment: radioligand binding to serotonin receptor 5-HT2C ([3H] Mesulergine); settings: 10 μM ligand
T1 construct: expressed in transfected cells; host or cells: CHO-K1
T1 sequence (P28335 33-458): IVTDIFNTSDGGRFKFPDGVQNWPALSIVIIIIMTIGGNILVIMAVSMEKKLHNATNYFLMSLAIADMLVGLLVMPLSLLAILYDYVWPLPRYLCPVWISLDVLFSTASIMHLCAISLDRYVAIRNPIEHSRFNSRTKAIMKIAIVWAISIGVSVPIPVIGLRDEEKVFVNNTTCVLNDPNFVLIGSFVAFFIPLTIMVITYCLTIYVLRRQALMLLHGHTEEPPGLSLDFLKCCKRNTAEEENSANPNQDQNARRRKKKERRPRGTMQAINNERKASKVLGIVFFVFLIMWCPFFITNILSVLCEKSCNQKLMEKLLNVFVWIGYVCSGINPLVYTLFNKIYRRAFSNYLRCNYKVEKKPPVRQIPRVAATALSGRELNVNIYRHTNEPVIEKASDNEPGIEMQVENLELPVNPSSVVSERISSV
Description: J. Neurochem. 69: 1449-1458, 1997]. […] SB242084 is used as positive control.

[2] = target: T2, recombinant human 5-HT2B receptor (Homo sapiens, UniProt P41595); experiment: radioligand binding to serotonin receptor 5-HT2B ([3H] Lysergic acid diethylamide); settings: for 5-HT2B % inhibition: 10 μM ligand
T2 construct: expressed in transfected cells; host or cells: CHO-K1
T2 sequence (P41595 whole entry): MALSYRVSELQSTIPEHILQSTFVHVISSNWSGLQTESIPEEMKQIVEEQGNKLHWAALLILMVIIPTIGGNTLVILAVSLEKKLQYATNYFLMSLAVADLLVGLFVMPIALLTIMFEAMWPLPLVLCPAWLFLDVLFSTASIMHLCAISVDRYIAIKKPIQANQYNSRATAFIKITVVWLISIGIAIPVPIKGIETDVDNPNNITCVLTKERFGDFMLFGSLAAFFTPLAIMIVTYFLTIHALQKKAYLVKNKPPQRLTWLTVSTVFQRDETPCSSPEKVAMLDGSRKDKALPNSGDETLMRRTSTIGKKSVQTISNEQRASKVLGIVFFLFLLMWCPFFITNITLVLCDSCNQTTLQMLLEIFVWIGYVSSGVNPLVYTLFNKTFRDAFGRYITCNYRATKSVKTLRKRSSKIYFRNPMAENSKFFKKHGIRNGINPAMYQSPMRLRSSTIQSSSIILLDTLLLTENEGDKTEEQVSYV

recombinant human 5-HT1A = target: T3, recombinant human 5-HT1A (Homo sapiens, UniProt P08908); experiment: radioligand binding to serotonin receptor 5-HT1A ([3H] 8-OH-DPAT); settings: 10 μM ligand
T3 construct: expressed in transfected cells; host or cells: CHO
T3 sequence (P08908 1-422): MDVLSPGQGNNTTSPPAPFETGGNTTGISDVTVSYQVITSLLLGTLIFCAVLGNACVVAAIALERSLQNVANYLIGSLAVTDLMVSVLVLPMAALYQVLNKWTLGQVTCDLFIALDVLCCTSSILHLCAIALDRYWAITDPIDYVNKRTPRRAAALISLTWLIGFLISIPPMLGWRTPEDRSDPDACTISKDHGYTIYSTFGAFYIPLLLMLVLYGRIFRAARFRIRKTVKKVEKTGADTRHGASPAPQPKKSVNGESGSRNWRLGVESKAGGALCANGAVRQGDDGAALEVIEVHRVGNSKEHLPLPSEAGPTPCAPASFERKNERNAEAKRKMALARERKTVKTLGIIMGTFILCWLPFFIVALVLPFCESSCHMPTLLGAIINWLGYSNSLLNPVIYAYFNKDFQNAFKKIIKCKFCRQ
Description: J Pharmacol Exp Ther. 306(1): 301-309, 2003]. […] Metergoline is used as positive control.

adrenergic receptor α1A = target: T4, adrenergic receptor α1A (Rattus norvegicus, UniProt P43140); experiment: radioligand binding to adrenergic receptor α1A ([3H] Prazosin)
T4 construct: membrane species from rat submaxillary glands (rat of Wistar breed) are prepared; from tissue; host or cells: rat (Wistar) submaxillary gland membranes
T4 sequence (P43140 1-466): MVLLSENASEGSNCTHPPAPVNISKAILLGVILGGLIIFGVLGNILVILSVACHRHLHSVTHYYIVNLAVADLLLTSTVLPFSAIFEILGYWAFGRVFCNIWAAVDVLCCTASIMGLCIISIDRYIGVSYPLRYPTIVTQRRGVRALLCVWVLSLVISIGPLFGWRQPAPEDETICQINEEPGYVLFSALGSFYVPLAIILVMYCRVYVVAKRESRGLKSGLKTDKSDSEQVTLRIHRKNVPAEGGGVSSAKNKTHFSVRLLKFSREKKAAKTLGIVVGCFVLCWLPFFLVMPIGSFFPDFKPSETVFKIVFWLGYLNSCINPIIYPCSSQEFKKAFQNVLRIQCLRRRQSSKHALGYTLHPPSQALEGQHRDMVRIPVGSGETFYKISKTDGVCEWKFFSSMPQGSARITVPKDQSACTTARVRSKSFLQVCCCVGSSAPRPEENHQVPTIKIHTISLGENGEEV
Experimental: Determination of investigated compounds' binding to α1A receptor was carried out according to the method described in [Michel A D, Loury D N and Whiting R l. Identification of a single α1A-adrenoceptor corresponding to the α1A-subtype in rat submaxillary gland. Br J. Pharmacol. 98:883-889, 1989]. […] Prazosin is used as positive control.

human α1D receptor = target: T5, human α1D receptor (Homo sapiens, UniProt P25100); experiment: radioligand binding to adrenergic receptor α1D ([3H] Prazosin)
T5 construct: expressed in transfected cells; host or cells: HEK-293
T5 sequence (P25100 1-572): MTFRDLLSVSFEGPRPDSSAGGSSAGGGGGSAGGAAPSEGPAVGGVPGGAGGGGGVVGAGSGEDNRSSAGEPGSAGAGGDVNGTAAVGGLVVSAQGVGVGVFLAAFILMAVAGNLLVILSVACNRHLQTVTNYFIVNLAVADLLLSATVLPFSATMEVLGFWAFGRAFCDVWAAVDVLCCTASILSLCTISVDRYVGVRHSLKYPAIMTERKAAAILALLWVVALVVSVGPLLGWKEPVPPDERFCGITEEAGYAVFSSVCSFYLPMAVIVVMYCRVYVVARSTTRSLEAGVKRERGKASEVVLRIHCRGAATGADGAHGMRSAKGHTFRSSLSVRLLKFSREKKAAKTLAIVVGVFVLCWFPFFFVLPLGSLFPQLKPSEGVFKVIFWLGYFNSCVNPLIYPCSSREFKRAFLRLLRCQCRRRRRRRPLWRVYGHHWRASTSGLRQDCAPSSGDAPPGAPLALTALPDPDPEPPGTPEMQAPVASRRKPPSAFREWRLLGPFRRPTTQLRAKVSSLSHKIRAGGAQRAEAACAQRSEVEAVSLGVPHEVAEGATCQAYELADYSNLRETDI
Description: 6-C. […] For this purpose sDNA of human α1D receptor is expressed in HEK-293 cells, as it was described in [T L Theroux, T A Esbenshade, R D Peavy and K P Minneman. Coupling efficiencies of human alpha 1-adrenergic receptor subtypes: titration of receptor density and responsiveness with inducible and repressible expression vectors. Mol. Pharmacol.; 50: 1376-1387, 1996]. […] Prazosin is used as positive control.

adrenergic receptor α1B = target: T6, adrenergic receptor α1B (Rattus norvegicus, UniProt P15823); experiment: radioligand binding to adrenergic receptor α1B ([3H] Prazosin)
T6 construct: membrane species from rat liver (rat of Wistar breed) are prepared; from tissue; host or cells: rat (Wistar) liver membranes
T6 sequence (P15823 1-515): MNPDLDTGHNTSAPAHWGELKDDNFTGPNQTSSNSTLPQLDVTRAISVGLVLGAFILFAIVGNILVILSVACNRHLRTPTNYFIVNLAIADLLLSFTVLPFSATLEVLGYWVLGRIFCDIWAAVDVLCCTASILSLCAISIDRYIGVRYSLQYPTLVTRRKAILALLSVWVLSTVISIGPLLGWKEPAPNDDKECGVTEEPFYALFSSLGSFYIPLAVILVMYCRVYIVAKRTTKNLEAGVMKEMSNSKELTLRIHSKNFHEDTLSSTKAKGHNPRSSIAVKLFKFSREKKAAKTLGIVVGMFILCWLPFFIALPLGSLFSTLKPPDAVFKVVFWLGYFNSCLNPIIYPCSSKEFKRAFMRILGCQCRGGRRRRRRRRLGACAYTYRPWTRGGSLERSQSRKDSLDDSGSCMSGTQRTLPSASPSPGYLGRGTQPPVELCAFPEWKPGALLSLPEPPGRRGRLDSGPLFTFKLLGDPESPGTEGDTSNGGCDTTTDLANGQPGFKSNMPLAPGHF
Description: Species heterogeneity of hepatic α1A-, α1B-, and α1C-subtypes. Biochem Biophys Res Commun. 186:760-7676 1992]. […] Prazosin is used as positive control.

human α2A receptor = target: T7, human α2A receptor (Homo sapiens, UniProt P08913); experiment: radioligand binding to adrenergic receptor α2A ([3H] MK-912)
T7 construct: expressed in transfected cells; host or cells: Sf9
T7 sequence (P08913 1-465): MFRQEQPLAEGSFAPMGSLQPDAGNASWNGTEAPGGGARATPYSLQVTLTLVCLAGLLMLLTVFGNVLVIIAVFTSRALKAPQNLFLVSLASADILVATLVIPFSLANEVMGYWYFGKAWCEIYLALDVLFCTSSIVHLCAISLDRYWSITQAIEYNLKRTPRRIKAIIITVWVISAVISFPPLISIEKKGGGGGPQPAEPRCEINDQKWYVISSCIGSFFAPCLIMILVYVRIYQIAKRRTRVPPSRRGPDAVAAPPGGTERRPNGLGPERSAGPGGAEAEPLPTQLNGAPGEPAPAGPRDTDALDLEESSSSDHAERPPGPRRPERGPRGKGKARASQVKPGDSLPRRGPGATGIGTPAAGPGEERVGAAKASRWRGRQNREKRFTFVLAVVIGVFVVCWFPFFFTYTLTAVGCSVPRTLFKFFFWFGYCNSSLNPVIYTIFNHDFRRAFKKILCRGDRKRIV
Description: J Pharmacol ExpTher. […] Yohimbine is used as positive control.

human 5-HT7 receptor = target: T8, human 5-HT7 receptor (Homo sapiens, UniProt P34969); experiment: radioligand binding to serotonin receptor 5-HT7 ([3H] Lysergic acid diethylamide); settings: 10 μM ligand
T8 construct: expressed in transfected cells; host or cells: CHO
T8 sequence (P34969 whole entry): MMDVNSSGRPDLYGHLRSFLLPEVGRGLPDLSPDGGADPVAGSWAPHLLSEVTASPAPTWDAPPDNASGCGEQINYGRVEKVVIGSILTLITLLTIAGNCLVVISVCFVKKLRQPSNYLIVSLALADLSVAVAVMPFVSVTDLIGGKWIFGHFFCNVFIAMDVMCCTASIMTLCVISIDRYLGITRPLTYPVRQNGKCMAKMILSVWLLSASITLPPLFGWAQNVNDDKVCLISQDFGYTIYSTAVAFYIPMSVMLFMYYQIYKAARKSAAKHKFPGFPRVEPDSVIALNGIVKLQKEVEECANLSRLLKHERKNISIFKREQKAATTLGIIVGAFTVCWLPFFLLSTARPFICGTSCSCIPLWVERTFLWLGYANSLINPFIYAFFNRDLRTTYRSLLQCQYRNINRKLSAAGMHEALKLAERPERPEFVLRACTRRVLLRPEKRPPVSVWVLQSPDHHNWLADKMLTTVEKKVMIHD
Description: For this purpose sDNA of human 5-HT7 receptor is expressed in CHO cells as it was described in [Shen Y, Monsma F J Jr, Metcalf M A, Jose P A, Hamblin M W, and Sibley DR. […] J. Biol. Chem. 1993, 268, 18200-18204]. […] J. Pharmacol. Exp. Ther. 1994, 268:1403-1410]. […] Methiothepin is used as positive control.

[3] = target: T9, recombinant human 5-HT6 receptor (Homo sapiens, UniProt P50406); experiment: radioligand binding to serotonin receptor 5-HT6 ([3H] Lysergic acid diethylamide); settings: 10 μM ligand
T9 construct: expressed in transfected cells; host or cells: HeLa
T9 sequence (P50406 whole entry): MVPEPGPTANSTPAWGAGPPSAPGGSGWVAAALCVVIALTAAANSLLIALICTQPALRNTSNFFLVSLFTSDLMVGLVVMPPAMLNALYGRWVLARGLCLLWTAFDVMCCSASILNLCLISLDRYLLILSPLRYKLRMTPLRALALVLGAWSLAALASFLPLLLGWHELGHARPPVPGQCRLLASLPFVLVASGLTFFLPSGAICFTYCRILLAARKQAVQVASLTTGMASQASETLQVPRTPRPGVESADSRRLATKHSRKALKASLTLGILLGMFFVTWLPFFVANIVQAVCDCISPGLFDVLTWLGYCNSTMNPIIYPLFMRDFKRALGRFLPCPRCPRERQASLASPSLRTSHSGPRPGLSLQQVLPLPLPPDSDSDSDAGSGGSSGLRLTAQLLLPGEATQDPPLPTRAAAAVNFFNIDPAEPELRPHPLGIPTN
Description: Mol. Pharmacol. 43:320-327, 1993]. […] Methiothepin is used as positive control.

Cc1ccc2c(c1)[C@@H]1CN(C)CCC[C@@H]1N2CCc1cccnc1.Cl.Cl.Cl (relative stereo) [1.6.1(1)•3HCl]
imidazoline I2 receptor % inhibition (imidazoline receptor I2): 80%

CN1CCc2c(c3cc(F)ccc3n2C#Cc2ccccc2)C1 [1.1(2)]
5-HT2C % inhibition [1]: 100% | 5-HT2B % inhibition [2]: 92%

Cc1ccc2c(c1)c1c(n2CCc2ccccc2)CCN(C)C1.Cl [1.1.2(1-2)•HCl, 2,8-dimethyl-5-phenethyl-1,2,3,4-tetrahydro-1H-pyrido[4,3-b]indole hydrochloride]
5-HT1A % inhibition (recombinant human 5-HT1A): 84% | IC50 [2]: 16.6 nM | Ki [2]: 10.6 nM | nH 5-HT2B [2]: 0.868 | 5-HT2B % inhibition [2]: 100% | imidazoline I2 receptor % inhibition (imidazoline receptor I2): 93%

Cc1ccc(CCn2c3c(c4cc(C)ccc42)CN(C)CC3)cc1 [1.1.2(1-3), 2,8-dimethyl-5-[2-(4-methylphenyl)-ethyl]-1,2,3,4-tetrahydro-1H-pyrido[4,3-b]indole]
IC50 (adrenergic receptor α1A): 46.7 nM | Ki (adrenergic receptor α1A): 18.9 nM | IC50 (human α1D receptor): 61.5 nM | Ki (human α1D receptor): 30.2 nM | IC50 (adrenergic receptor α1B): 17 nM | Ki (adrenergic receptor α1B): 9.4 nM | IC50 (human α2A receptor): 4.72 nM | Ki (human α2A receptor): 1.77 nM

CN1CCc2c(c3cc(C(F)(F)F)ccc3n2CCc2ccccc2)C1.Cl [1.1.2(1-7)•HCl, 2-methyl-8-trifluoromethyl-5-phenethyl-1,2,3,4-tetrahydro-1H-pyrido[4,3-b]indole]
5-HT7 % inhibition (human 5-HT7 receptor): 94%

CN1CCc2c(c3cc(F)ccc3n2CC(O)c2ccccc2)C1 (stereo not shown) [1.1.2(1-9)]
5-HT2C % inhibition [1]: 89% | 5-HT2B % inhibition [2]: 50%

Cc1ccc2c(c1)c1c(n2CC(O)c2ccccc2)CCN(C)C1 (stereo not shown) [1.1.2(1-10), 2,8-dimethyl-5-[(2-phenyl-2-hydroxy)ethyl]-1,2,3,4-tetrahydro-1H-pyrido[4,3-b]indole]
5-HT2C % inhibition [1]: 96% | 5-HT2B % inhibition [2]: 79%

COc1ccc(CCn2c3c(c4cc(C)ccc42)CN(C)CC3)cc1.Cl [1.1.2(1-14)•HCl]
5-HT1A % inhibition (recombinant human 5-HT1A): 57% | 5-HT6 % inhibition [3]: 108% | 5-HT7 % inhibition (human 5-HT7 receptor): 100%
